Data set [1] can be described thus: Tolerability in normal laboratory dogs (data not shown). Particulars: dog, in vivo.
For data set [2], the system named is primary canine DLBCL cells. Nature of the data set: MTS cell viability assay, primary canine DLBCL samples. Particulars: Canis lupus familiaris, primary sample #1, 72 hours, read-out: IC50, DLBCL#1. Format: cell-based. How it is done:
Cryopreserved tumor cells obtained from sterile lymph node biopsy samples from dogs with diffuse large B cell lymphoma (DLBCL) were cultured with 100 ng/mL of megaCD40L (Enzo Life Science, Plymouth Meeting, PA) as previously described, [27]. The human T-cell leukemia cell line, Jurkat, was from the American Type Culture Collection (ATCC, Manassas, VA) and cultured in RPMI1640 medium (Gibco/BRL, Grand Island, NY) containing 10% fetal bovine serum (FBS; Atlas Biologicals, Fort Collins, CO), 2-mercaptoethanol (Gibco/BRL), HEPES, L-glutamine, sodium pyruvate (Mediatech Inc., Manassas, VA), non-essential amino acids (Sigma Aldrich, St. Louis, MO), and Primocin (Invivogen, San Diego, CA). The canine DLBCL cell line CLBL1 obtained from Dr. Barbara Rütgen (University of Vienna, Austria), [29] and human DLBCL cell lines OCI-Ly3 [30], [31] and OCI-Ly10 [32] obtained from Dr. Anne Novak (Mayo Clinic Cancer Center, Rochester, MN) were cultured in complete Iscove’s Modified Dulbecco’s medium (IMDM) containing 20% FBS, L-glutamine, and Primocin. All cells were maintained at 37°C in a humidified 5% CO2 atmosphere. The following additional canine tumor cell lines were used to evaluate response to SINE compounds: C2, mast cell tumor line provided by Dr. George Caughey, UCSF, San Francisco, CA [33]; OSA16, osteosarcoma cell line, provided by Dr. Jaime Modiano, UM, Minneapolis, MN [34]; and 323610-3, malignant melanoma cell line, provided by Dr. Michael Kent, UCD, Davis, CA [35]. All cell lines were cultured in complete RPMI media containing 10% FBS, antibiotic/antimycotic, HEPES, sodium pyruvate, nonessential amino acids and Glutamax (media supplements from Gibco).
Cell viability for lymphoid lines was determined by the MTS (3-(4, 5-dimethylthiazol-2-yl)-5-(3-carboxymethoxyphenyl)-2-(4-sulfophenyl)-2H-tetrazolium) assay using CellTiter 96® AQueous One Solution Cell Proliferation Assay Kit (Promega, Madison, WI). Briefly, for lymphoid cell lines, 5×10^4 cells (or 1×10^5 primary DLBCL cells) were cultured in 100 µL of complete medium in 96-well plates in the presence of SINE compounds. After 72 hours, 20 µL of MTS solution was added to each well and cells were incubated for another 4 hours before measuring absorbance at 490 nm using a Wallac Victor 1420 Multilabel Counter (Perkin Elmer, Waltham, MA). The IC50 of SINE was calculated using Prism 6 software (GraphPad Software, Inc., La Jolla, CA).

A short description of data set [3]: Single oral dose pharmacokinetics in healthy dogs. The data set is classed as in vivo. To be noted: male, beagle, dog, plasma, 1.5 mg/kg single oral dose, fed, 6 dogs. How it is done: KPT-335 was administered as a single oral dose in capsule formulation to 6 male beagle dogs at approximately 1.5 mg/kg following a meal. Serial blood samples were collected from each dog prior to dosing and at 0.25, 0.5, 1, 2, 4, 6, 8, 12, 18, 24 and 48 hours post-dose and placed into tubes containing K2EDTA. Blood samples were stored on wet ice until processed to plasma by centrifugation at 3500 rpm for 10 minutes at 5°C. Plasma samples were stored in at −80°C until analysis at Agilux Laboratories (Worcester, MA). Plasma samples were analyzed for parent drug concentration using sample preparation by protein precipitation and then analysis by LC-MS/MS using propranolol as the internal standard. The method was qualified for use (a single batch to assess method performance: precision and accuracy; linearity of dilution; and matrix specificity) prior to initiation of sample analysis. Acceptance criteria for calibration standards and quality control samples were within ±30% nominal concentration. Individual animal pharmacokinetic parameter values were derived by the pharmacokinetic analysis program Phoenix WinNonlin version 6.3 (Pharsight Corporation), using the non-compartmental Model 200 with uniform weighting. The single-dose pharmacokinetic parameters assessed include: Cmax (maximum concentration observed); Tmax (time of observed maximum concentration); AUC0→∞ (area under the concentration-time curve from time zero extrapolated to infinity); AUC0→last (area under the concentration-time curve from time zero to the time of the last quantifiable concentration); and t1/2 (terminal half life). Descriptive statistical data (mean, standard deviation, and standard error of the mean) were calculated from the unrounded numbers in an Excel (Microsoft) spreadsheet. Concentration results, means, and calculated parameters were reported to 3 significant figures.

For data set [4] the following is noted: dog, in vivo.
In another data set the test system is CLBL1 DLBCL cells. Put plainly: MTS cell viability assay, CLBL1. To be noted: Canis lupus familiaris, CLBL-1, 72 hours, read-out: IC50 (± S.D.), CLBL1. Format: cell-based, canine. Here is the method: (§1) Cryopreserved tumor cells obtained from sterile lymph node biopsy samples from dogs with diffuse large B cell lymphoma (DLBCL) were cultured with 100 ng/mL of megaCD40L (Enzo Life Science, Plymouth Meeting, PA) as previously described, [27]. The human T-cell leukemia cell line, Jurkat, was from the American Type Culture Collection (ATCC, Manassas, VA) and cultured in RPMI1640 medium (Gibco/BRL, Grand Island, NY) containing 10% fetal bovine serum (FBS; Atlas Biologicals, Fort Collins, CO), 2-mercaptoethanol (Gibco/BRL), HEPES, L-glutamine, sodium pyruvate (Mediatech Inc., Manassas, VA), non-essential amino acids (Sigma Aldrich, St. Louis, MO), and Primocin (Invivogen, San Diego, CA). […]
(§2) Cell viability for lymphoid lines was determined by the MTS (3-(4, 5-dimethylthiazol-2-yl)-5-(3-carboxymethoxyphenyl)-2-(4-sulfophenyl)-2H-tetrazolium) assay using CellTiter 96® AQueous One Solution Cell Proliferation Assay Kit (Promega, Madison, WI). […] After 72 hours, 20 µL of MTS solution was added to each well and cells were incubated for another 4 hours before measuring absorbance at 490 nm using a Wallac Victor 1420 Multilabel Counter (Perkin Elmer, Waltham, MA). The IC50 of SINE was calculated using Prism 6 software (GraphPad Software, Inc., La Jolla, CA).

A short description of data set [5]: Owner-assessed quality of life questionnaire. The data set is classed as in vivo, dogs. An excerpt:
A tool to assess quality of life in dogs with cancer during treatment has been previously published. This was used to assess owner perceived changes in dogs undergoing KPT-335 treatment during both the dose escalation and dose expansion studies. An overall quality of life (QOL) score was created based on answers to the questions on the quality of life questionnaire. The scores from each question were summed resulting in an overall quality of life score which could range from 23 to 115. Trends in Quality of Life (QOL) during the study were examined using linear mixed models containing fixed effects of time and an autoregressive correlation structure for the random errors. Wald tests were used to test for a significant change in QOL with degrees of freedom calculated using the Kenward-Roger method. Measurements obtained after 90 days were not included in the analysis for the dose escalation study and measurements after 70 days were not included in the analysis of the dose expansion data due to few data points after those time points.

The subject of another data set is OCI-Ly10 DLBCL cells. Put plainly: MTS cell viability assay, OCI-Ly10. The data set is classed as cell-based, human. Particulars: Homo sapiens, OCI-Ly10, 72 hours, read-out: IC50 (± S.D.), OCI-Ly10. Here is the method: as §1, §2

In the case of `O=C(/C=C\n1cnc(-c2cc(C(F)(F)F)cc(C(F)(F)F)c2)n1)NNc1ccccn1` [KPT-335], the maximal tolerated dose (MTD) in data set [1] stood at 2 mg/kg. Also, the IC50 in data set [2] is 2 nM; with CLBL1 DLBCL cells, 8.5 ± 4.1 nM; in the data set with OCI-Ly10 DLBCL cells, 41.8 ± 21 nM. The same molecule returned a maximum concentration (Cmax) in data set [3] (po, 1.5 mg/kg, capsule) of around 250 ng/mL. Moreover, the time to peak (Tmax) in data set [3] (po, 1.5 mg/kg, capsule) is around 4 h. For the same molecule, the AUC in data set [3] turned out to be 1800 ng·h/mL. The AUC(0-inf) in data set [3] (capsule) was determined as 1810 ng·h/mL. Also, in data set [3] (capsule, read-out: AUC0-last, mean), the AUC(0-t) was 1760 ng·h/mL. For the same molecule, in data set [3] (capsule, read-out: t1/2, mean (converted)), the half-life was 3.88 h. Also, the tolerable doses result in data set [4] is “below 3 mg/kg”. Moreover, the “overall quality of life” value was “did not change significantly” in data set [5] (dose escalation study, p = 0.64) and “did not change significantly” in data set [5] (dose expansion study, p = 0.47).

Source of the values: publication PMC3913620, “Preclinical Evaluation of the Novel, Orally Bioavailable Selective Inhibitor of Nuclear Export (SINE) KPT-335 in Spontaneous Canine Cancer: Results of a Phase I Study” (PLoS ONE, 2014).
